# Legend:
# [1] = cited from earlier work
# Source text: The Arc display several populations of neurons that are pivotal for regulating energy homoeostasis, food intake and cardiovascular functions. Because of this central role at the interface between the brain and the periphery, a few studies have hypothesized that the Arc could share common features with classical CVOs. […] We have therefore reinvestigated this subject using our approach. […] Membrane‐associated SST2 in Arc neurons intern ...
# [2] = Tolerability after acute OCT i.p. injection; assay type: in vivo; conditions: rat and mice models, 2.5 mg/kg i.p.
# SST2 [3] = molecular target: T1, SST2 (Rattus norvegicus, UniProt P30680); assay: In vivo model 3: juvenile cerebral ischaemia, OCT extravasation detected by SST2 internalization; parameters: two sensory CVOs in which neurons natively express the SST2; from tissue; host or cells: brain of P14 rats (area postrema, OVLT, arcuate nucleus, cerebral cortex), in vivo; conditions: P14 rats, 2.5 mg/kg i.p., 45 mins
# T1 sequence (P30680 whole entry, the tested form may be a part): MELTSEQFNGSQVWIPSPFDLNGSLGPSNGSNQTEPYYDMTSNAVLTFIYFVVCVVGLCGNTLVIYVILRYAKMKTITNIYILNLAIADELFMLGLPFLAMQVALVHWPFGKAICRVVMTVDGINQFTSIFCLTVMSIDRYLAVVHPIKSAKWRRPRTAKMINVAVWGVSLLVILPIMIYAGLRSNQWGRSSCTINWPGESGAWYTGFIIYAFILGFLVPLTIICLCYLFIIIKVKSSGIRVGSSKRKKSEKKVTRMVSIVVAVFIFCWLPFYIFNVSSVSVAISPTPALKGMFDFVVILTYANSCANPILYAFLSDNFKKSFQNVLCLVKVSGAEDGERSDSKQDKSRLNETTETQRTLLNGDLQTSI
# Method: Ischaemia‐reperfusion. Ischaemia was induced in P14 rats as previously reported. See Supporting Information for further details.
# Cerebral ischaemia. Isoflurane-anaesthetized P14 rats were exposed to proximal left middle cerebral artery electrocoagulation (MCAo) combined with a transient (60 min) double occlusion of common carotid arteries (CCAo). Carotid blood-flow restoration was assessed by release of the carotid clips.
# SST2 [4] = molecular target: T1, SST2; conditions: P14 rats, 2.5 mg/kg i.p., 45 mins
# Method: Adult mice and post‐natal day 14 (P14) male rats. […] Brains were dissected, post‐fixed in the same fixative overnight at 4°C, cryoprotected, frozen in liquid isopentane at −45°C and sectioned in the coronal plane at a thickness of 30 μm and collected in PBS.
# The SST2 receptor was immunolocalized on brain sections (in vivo models 1‐5), whole embryo sections (in vivo model 5) and DAOY cells (in vitro model). Brain sections were selected at the level of the circumventricular organs (in vivo model 1), at the level of the focused ultrasound‐mediated BBB opening (in vivo model 2), at the level of the ischaemia‐reperfusion lesions (in vivo model 3), at the level of the traumatic brain injury (in vivo model 4) and at the level of the caudal embryonic cortex (in vivo model 5). See Supporting Information for further details.
# [5] = test system: Human Primary Brain Microvascular Endothelial Cell (hPBMEC) monolayers; assay: Fluorescein permeability of hPBMEC monolayers (tight junction functionality); assay type: in vitro ADME; conditions: hPBMEC monolayer, with 1 M mannitol treatment 30 min, versus basal
# Method: The hPBMECs were cultured as previously described [31]. […] Differentiated hPBMECs with the BBB phenotype (TEER> 1000 Ωxcm^2) were treated or not with 1 M mannitol in serum‐free culture medium for 30 min to temporarily open tight junctions. Then, mannitol solution was removed and replaced by culture medium. Tight junction opening was evaluated with the measurements of fluorescein permeability, a small hydrophilic compound known to cross the BBB via the paracellular route. […] The medium of the abluminal compartment was then collected during a 2‐hour period (n = 3 per condition).
# The experimentation was conducted in compliance with the French legislation, and the protocol was permitted by the French Ministry of Higher Education and Research (CODECOH DC-2014-2229). Brain capillaries were isolated using soft digestion of patient brain tissues and then seeded. Brain primary microvascular endothelial cells were shortly amplified and seeded on 12-well-type Transwell® (Corning, membrane area: 1.12 cm^2) with microporous membranes (pore size: 0.4 µm). Cells were cultured in EBM-2 medium (Lonza, Basel, Switzerland) supplemented with 20% serum and growth factors (Sigma-Aldrich, St. Louis, MO, USA). Transendothelial electrical resistance (TEER) was measured as an integrity marker and to assess cellular barrier tightness.
# SST2 [6] = molecular target: T2, SST2 (Mus musculus, UniProt P30875); assay: In vivo model 2: focused ultrasound-mediated BBB disruption, extravasation detected by SST2 internalization or MRI; conditions: after microbubble sonication of the targeted area, i.v.
# T2 construct: The endogenous SST2 was immunolocalized using an extensively characterized rabbit monoclonal antibody; from tissue; host or cells: brain of adult C57Bl/6 mice, P7 OF1 mouse pups and C57Bl/6 embryos (E13.5-E18.5), in vivo
# T2 sequence (P30875 whole entry): as the sequence (P30680 whole entry, the tested form may be a part) above, with L3M, T4S, F8L, I15V, P16S, G168C, A335T counted along it
# Method: BBB disruption induced by magnetic resonance imaging (MRI)‐guided focused ultrasound (FUS) (MRgFUS) was performed as previously reported [28].
# Stereological measures of estimated volume in the in vivo model 2 was performed with the Volumest plug‐in [32] in the Fiji distribution of ImageJ [33]. Brightfield images of serial coronal sections separated by 180 μm were collected. The number of serial sections, the thickness of the sections, the sampling interval and pixel‐to‐μm scaling were entered into the Volumest plug‐in. Next, the cortical areas displaying BBB disruption detected by SST2 internalization were manually traced and the volume estimate was calculated in the Volumest plug‐in [32].
# Adult C57Bl/6 mice (n=3) were anaesthetized with isoflurane (1-2% at beginning, then 0.8% during MRI acquisition). The catheter was installed in the tail vein and the head was shaved with a depilatory cream. Mice were then installed on the MRgFUS system (Image Guided Therapy) and the transducer was placed on their head. MR contrast agent (MRCA) (Dotarem, Guerbet, France; 0.1 mL) was injected intravenously outside the MRI tunnel, before the baseline MRI acquisition. Mice were then removed from the MRI tunnel in order to inject the ultrasound contrast agent (UCA) (Sonovue, Bracco, Italy; 0.15 mL). […]
# [7] = cited from earlier work; remark: listed apart in the source
molecule,measurement,setting,value
Cc1cc(-c2ccc(/N=N/c3ccc4c(S(=O)(=O)O)cc(S(=O)(=O)O)c(N)c4c3O)c(C)c2)ccc1/N=N/c1ccc2c(S(=O)(=O)O)cc(S(=O)(=O)O)c(N)c2c1O [Evans blue],dye extravasation in the Arc,[1],extravasated only in the Arc of 24‐hour fasted mice but not in control‐fed mice
"C[C@@H](O)[C@@H]1NC(=O)[C@H](CCCCN)NC(=O)[C@@H](Cc2c[nH]c3ccccc23)NC(=O)[C@H](Cc2ccccc2)NC(=O)[C@@H](NC(=O)[C@H](N)Cc2ccccc2)CSSC[C@@H](C(=O)N[C@H](CO)[C@@H](C)O)NC1=O [OCT, octreotide]",physiological or behavioural parameters after acute i.p. injection until perfusion,[2],did not observe any gross changes in physiological or behavioural parameters
same,SST2 internalization around cortical lesion,SST2 [3]; 6 h after ischaemia,few neurons with internalized receptors were visible
same,SST2 internalization around cortical lesion,SST2 [3]; 12 h after ischaemia,a larger number of neurons with internalized SST2 are localized in a narrow band
same,SST2 internalization around cortical lesion,SST2 [3]; 24 h after ischaemia,induced large areas of SST2 internalization around the core of the cortical lesion
same,SST2 immunoreactivity in AP and OVLT (permeable capillaries),SST2 [4],immunoreactivity was confined to intracytoplasmic granules near the nucleus and in proximal dendrites
same,SST2 in arcuate nucleus neurons,SST2 [4]; naïve animals,internalized and clustered in TGN‐like structures
O=C1OC2(c3ccc(O)cc3Oc3cc(O)ccc32)c2ccccc21 [fluorescein],increase of fluorescein permeability,[5],600 ± 25%
CNC[C@H](O)[C@@H](O)[C@H](O)[C@H](O)CO.O=C([O-])CN1CCN(CC(=O)[O-])CCN(CC(=O)O)CCN(CC(=O)[O-])CC1.[Gd+3] [gadolinium],Gd extravasation on T1-weighted MRI,SST2 [6],Extravasation was evident from the cerebral cortex to deep brain structures
somatostatin,half-life in the circulation,[7],2 to 3 min

# Source: PMC7891648, “A simple novel approach for detecting blood–brain barrier permeability using GPCR internalization” (Neuropathology and Applied Neurobiology, 2020)
